From US6805865B1, “Compositions and methods for treating cancer and hyperproliferative disorders” (EntreMed, Inc., priority 1993, dated 2004) come the findings set out here.

In assay [1] the test system is bFGF-induced vascularization. Description: bFGF-containing gelatin sponge implanted on liver of vaccinated mice, histology. The class given is in vivo. The settings on record: peptide-liposome vaccinated mice, sponge with recombinant human bFGF on liver, 14 days after implantation. The source says: Following the vaccination protocol, mice were challenged with bFGF impregnated sponges and neovascularization assessed after 14 days, the results are shown in FIG. 6.
In order to determine if generation of antibody to the bFGF molecule has an effect on bFGF-induced vascularization, gelatin sponges containing recombinant human bFGF were implanted onto the left lobe of the liver of mice following vaccination with the liposomal lipid A controls, liposomes containing the heparin binding domain peptide, liposome containing the receptor binding domain peptide, or PBS. Fourteen days following implantation, the sponges were removed. Vascularity and leukocyte infiltration were assessed histologically. Well defined blood vessels containing red blood cells were evident in sponges removed from mice vaccinated with control preparations (liposomal lipid A and PBS). In addition, there was an abundant amount of cellular infiltration, consisting of white blood cells and fibroblasts. […] Although red blood cells were present in the histological sections of the sponge taken from mice vaccinated with the heparin binding domain peptide, they lacked well defined structures surrounding them.

The subject of assay [2] is B16-BL6 melanoma cells. The assay is described as follows: B16-BL6-containing gelatin sponge implanted on liver of vaccinated mice, histology. It counts as in vivo. The following applies: peptide-liposome vaccinated mice, 14 days after implantation. An excerpt:
In order to determine if vaccination could inhibit the angiogenesis induced by a tumor, gelatin sponges were implanted containing B16-BL6 melanoma cells onto the liver of mice following vaccination with control liposomes (liposomal lipid A), liposomes linked to the heparin binding domain peptide, liposomes linked to the receptor binding domain peptide, or PBS. Fourteen days following implantation, the sponges are removed and examined histologically. Sponges removed from mice vaccinated with liposomal lipid A and PBS contained viable and proliferating B16BL6 tumor cells. In addition, neovascularization into the sponge was abundant. […] Similar to findings from sponges containing bFGF, there was a tremendous amount of red blood cells lacking defined structures surrounding them.

The subject of assay [3] is B16BL6. Description: B16BL6 experimental lung metastasis after intravenous challenge of vaccinated mice. It counts as in vivo. The settings on record: peptide conjugated to liposomes, vaccinated and boosted, intravenous melanoma challenge, 14 days.
Source text: Fourteen days after the mice were vaccinated, boosted, and challenged with B16B16 murine melanoma, the animals were sacrificed and the lungs were removed and numbers of melanotic tumor nodules on the surface were counted.
Two weeks following the final boost , mice were intravenously challenged with B16BL6. Mice were sacrificed at day 14 following challenge. […] The heparin binding domain peptide bFGF covalently linked to liposomes was used as a positive control in this experiment.
The test system of assay [4] is B16BL6 melanoma. Description: Growth of B16BL6 tumor cells in vitro with peptide and bFGF (cell counts). It counts as cell-based, murine. The following applies: 10,000 cells/well, various peptide concentrations, media with 5 ng/ml bFGF. Here is the method: B16BL6 melanoma were plated at 10,000 cells/well in a 24 well plate and incubated overnight. […] This example provides methods useful for selecting peptides useful for the methods and compositions of the present invention.

Assay [5] deals with HUVEC. Description: bFGF stimulated HUVEC proliferation in the presence of bFGF peptides. It counts as cell-based. The settings on record: free synthetic peptide, in vitro.
The test system of assay [6] is bFGF. The assay is described as follows: Serum antibody response (ELISA) after vaccination with bFGF peptides conjugated to lipid A liposomes. The following applies: C57BL/6J mice, peptide covalently conjugated to liposomal vesicles containing lipid A. The class given is in vivo. The source says:
Both peptides A and B were incorporated into lipid A containing liposomes and used separately in a vaccination protocol. Peptides were conjugated to liposomes according to the methods and protocols described above in Example 8. Mice were immunized and boosted twice, bled and pooled serum analyzed for anti-peptide antibody titer and crossreactivity to bFGF by ELISA.
The comparison of titers and crossreactivity for serum from mice vaccinated with whole bFGF or with the liposomal heparin binding domain peptide of bFGF vaccine is shown in FIG. 4 and a comparison of the titers and crossreactivity for serum from mice vaccinated with whole bFGF or the liposomal receptor binding domain peptide of bFGF vaccine is shown in FIG. 5.
(An ELISA detects its analyte on a solid surface through an enzyme-linked reagent.)

The subject of assay [7] is LLC-LM. The assay is described as follows: LLC-LM experimental metastatic model, intravenous challenge, lung weight. It counts as in vivo, mice. The following applies: peptide in liposome format, 3 inoculations two weeks apart, day 17, based on lung weight, versus control. How it is done:
Efficacy of vaccination of mice with the heparin binding domain peptide bFGF in a liposome format was determined in the LLC-LM experimental metastatic model.
Mice were vaccinated with the heparin binding domain peptide of bFGF in a liposome format using the same vaccination regimen as in the B16BL6 experiments above (3 inoculations two weeks apart). Two weeks following the final boost, mice were intravenously challenged with LLC-LM. At day 17, the control (no treatment) mice began to succumb to the tumor burden in the lung. All groups were sacrificed. Lungs were removed and analyzed based on lung weight. Normal lung weight was subtracted out of the treated and non-treated groups to determine the T/C. Vaccination with the heparin binding domain peptide inhibited the growth and development of LLC-LM experimental metastasis by 94% when compared to control. These lungs have been photographed and will be assessed histologically.

With “YCKNGGFFLRIHPDGRVDGVREKSDPHIKLQLQAEERGV VSIKGV (YCKNGGFFLRIHPDGRVDGVREKSDPHIKLQLQAEERGVVSIKGV; listed as Homo sapiens) [heparin binding domain peptide, used free or conjugated to lipid A liposomes]”, the “cellular infiltration and neovascularization of bFGF sponge” value in assay [1] is “lack of cellular infiltration and neovascularization”. Further, in assay [2], the “neovascularization and tumor growth in B16-BL6 sponge” value is “blocked neovascularization and caused ablation of tumor growth and development”. In assay [3], the “mean number of lung metastases” value is reported as “significantly reduces”. The “growth of B16BL6 cells, cell counts” value in assay [4] is on record as “no significant effect”. The “bFGF stimulated HUVEC proliferation” value in assay [5] is listed as “inhibitory effect”; in assay [5] (listed as heparin-binding domain peptide), “inhibited”. Further, the “antibody response in serum” value in assay [6] is listed as “antibody response”. In addition, the “inhibition of growth and development of LLC-LM experimental metastasis” value in assay [7] came out at 94%.
In the case of “SNNYNTYRSRKYSSWYVALKR (listed as Homo sapiens) [receptor binding domain peptide, used free or conjugated to lipid A liposomes]”, in assay [5], the “bFGF stimulated HUVEC proliferation” value was “inhibited”. Further, in assay [6], the “antibody response in serum” value was “no antibody response”.
